How the values were obtained:
phosphorylated GCN2 = target: T1, phosphorylated GCN2 (Homo sapiens, UniProt Q9P2K8); assay: Inhibition of phosphorylated GCN2 under amino acid deficiency in HT-1080 cells, Western blot; format: cell-based; conditions: compound 50 nM, 24 hours; for Phospho-GCN2 inhibition: symbols ◯ / X not defined
T1 construct: endogenous in cells; host or cells: HT-1080
Protocol: (§1) <Experimental Example 5> Evaluation of Inhibitory Efficacy of ISR-Related Kinase GCN2 Under Amino Acid Deficiency Condition Using Western Blot
(§2) HT-1080 cells, a human fibrosarcoma cell line, were cultured in RPMI-1640 medium supplemented with 10% FBS, penicillin (penicillin; 100 IU/ml), and streptomycin (streptomycin; 100 μg/ml). Cells (1×10^6 cells/ml) were seeded onto 100 mm plates (polypropylene tissue culture plate) and incubated for 24 hours in a 37° C., 5% CO2 incubator before being used for experiments.
(§3) The following method was used to achieve amino acid deficiency conditions in cells. After 24 hours of cell culture, the cells were cultured in amino acids and L-glutamine-free RPMI-1640 medium supplemented with 10% FBS, penicillin (100 IU/ml), and streptomycin (100 μg/ml). After 24 hours of cell culture in RPMI-1640 without amino acids and L-glutamine, the compound prepared at a concentration of 50 nM was dispensed onto each plate and cultured for 24 hours in a 37° C., 5% CO2 incubator.
(§4) In order to measure the signal transduction inhibitory efficacy of GCN among the ISR-related kinases according to the present invention, the following experiment was performed using SDS-PAGE. The fibrosarcoma cell line HT-1080 cells cultured on plates as described above were washed with PBS after removing the culture medium. After removing PBS, the cells were lysed by adding a radio-immunoprecipitation assay buffer (RIPA buffer) containing 50 mM Tris (pH 7.4), 150 mM NaCl, 1% NP-40, 0.5% sodium deoxycholate, 2 mM sodium fluoride, 2 mM EDTA, 0.1% SDS, and a protease/phosphatase inhibitor cocktail to the plate. After centrifugation at 4° C., 13,000×g for 15 minutes, the protein in the upper layer was collected, and the protein concentration was measured at 562 nm using BCA (bicinchoninc acid) reagent, and the amount of protein in all samples was prepared at 20-50 μg.
(§5) After making the total volume the same using the sample buffer and RIPA buffer, it was heated at 97° C. for 5 minutes. Then, electrophoresis was performed on 8% or 12% SDS-PAGE at 80 V for 30 minutes and at 160 V for 1 hour and 30 minutes. After electrophoresis, the SDS-PAGE gel was transferred to an NC membrane (nitrocellulose membrane) at 90 V for 2 hours. The NC membrane was placed in TBST (tris buffer saline tween-20; 20 mM tris, 137 mM sodium chloride, 0.1% tween-20, pH 8.0) containing 5% non-fat skim milk, placed on a shaker, and reacted at room temperature for 1 hour.
(§6) Each primary antibody was diluted in TBST containing 5% non-fat skim milk, poured onto the NC membrane, and reacted at 4° C. for 24 hours. The membrane was washed three times for 10 minutes each with TBST. The secondary antibodies (anti-rabbit IgG and anti-mouse IgG labeled with horseradish peroxidase (HRP)) were diluted in TBST containing 5% non-fat skim milk and reacted with the membrane at room temperature for 1 hour. Upon completion of the reaction, the membrane was washed three times with TBST for 10 minutes each. Protein expression bands were detected by a chemiluminescence image analyzer (Image Quant LAS 500) after the ECL solution was reacted with the NC membrane.
GCN2, a key kinase of the integrated stress response (ISR), is phosphorylated in response to amino acid deficiency.

[1] = target: recombinant human GCN2 protein (Homo sapiens, UniProt Q9P2K8); assay: General control nonderepressible 2 (GCN2) inhibitory capacity, 33P-ATP filter assay; format: biochemical; conditions: recombinant human GCN2, 70 uM [gamma-33P-ATP], 40 minutes, room temperature
recombinant human GCN2 protein, sequence (Q9P2K8 whole entry): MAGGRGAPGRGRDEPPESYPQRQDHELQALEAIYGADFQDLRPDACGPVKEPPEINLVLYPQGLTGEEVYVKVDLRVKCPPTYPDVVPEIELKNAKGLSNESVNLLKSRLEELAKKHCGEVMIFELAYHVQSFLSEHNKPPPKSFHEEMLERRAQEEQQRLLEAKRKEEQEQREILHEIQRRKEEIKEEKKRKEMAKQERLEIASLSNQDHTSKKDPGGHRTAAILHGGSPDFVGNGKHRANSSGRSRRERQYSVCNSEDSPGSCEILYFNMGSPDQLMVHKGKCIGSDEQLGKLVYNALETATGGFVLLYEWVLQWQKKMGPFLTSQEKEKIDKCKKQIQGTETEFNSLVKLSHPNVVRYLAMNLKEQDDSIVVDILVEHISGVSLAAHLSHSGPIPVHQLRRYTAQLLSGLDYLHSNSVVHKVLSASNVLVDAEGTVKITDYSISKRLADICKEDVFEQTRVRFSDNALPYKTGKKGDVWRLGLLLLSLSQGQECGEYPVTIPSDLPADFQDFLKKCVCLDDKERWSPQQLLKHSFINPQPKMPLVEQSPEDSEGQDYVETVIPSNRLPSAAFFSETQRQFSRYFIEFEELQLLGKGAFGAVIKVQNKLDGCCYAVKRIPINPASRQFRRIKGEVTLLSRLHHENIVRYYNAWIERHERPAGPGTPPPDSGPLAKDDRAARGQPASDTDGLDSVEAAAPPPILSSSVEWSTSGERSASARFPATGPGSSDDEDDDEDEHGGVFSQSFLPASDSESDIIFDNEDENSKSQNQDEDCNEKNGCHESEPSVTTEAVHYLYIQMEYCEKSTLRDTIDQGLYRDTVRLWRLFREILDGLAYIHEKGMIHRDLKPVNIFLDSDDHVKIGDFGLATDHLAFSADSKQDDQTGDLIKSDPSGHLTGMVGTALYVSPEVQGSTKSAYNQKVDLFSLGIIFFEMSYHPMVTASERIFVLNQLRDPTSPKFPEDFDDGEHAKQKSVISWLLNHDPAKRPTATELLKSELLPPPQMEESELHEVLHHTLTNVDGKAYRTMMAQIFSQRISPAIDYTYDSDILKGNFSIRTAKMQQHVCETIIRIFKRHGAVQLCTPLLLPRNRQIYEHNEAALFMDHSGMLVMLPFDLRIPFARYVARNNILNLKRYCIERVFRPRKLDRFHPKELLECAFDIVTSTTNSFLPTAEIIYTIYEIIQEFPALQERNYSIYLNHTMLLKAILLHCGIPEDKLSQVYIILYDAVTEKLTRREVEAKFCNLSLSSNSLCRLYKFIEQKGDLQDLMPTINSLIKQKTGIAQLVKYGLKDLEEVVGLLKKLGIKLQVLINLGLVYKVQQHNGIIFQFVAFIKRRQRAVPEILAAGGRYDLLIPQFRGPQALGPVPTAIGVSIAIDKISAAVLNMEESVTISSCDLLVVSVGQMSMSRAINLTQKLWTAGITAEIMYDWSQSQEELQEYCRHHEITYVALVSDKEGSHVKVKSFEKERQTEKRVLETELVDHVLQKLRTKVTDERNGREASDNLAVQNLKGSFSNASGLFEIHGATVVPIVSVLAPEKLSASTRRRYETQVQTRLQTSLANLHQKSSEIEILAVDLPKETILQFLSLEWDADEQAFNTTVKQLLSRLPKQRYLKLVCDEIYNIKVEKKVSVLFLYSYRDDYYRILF

ATF4 = assay: Inhibition of ATF4, downstream factor of ISR, in HT-1080 cells, Western blot (FIG. 1); format: cell-based, human; conditions: amino acid deficiency, compound 50 nM, 24 hours
Protocol: as §1, §2, §3, §4, §5, §6
FIG. 1 is a set of photographs confirming the mechanism proteins that react upon ISR activation, wherein the numbers correspond to example numbers of the present invention. […] They are also known to have an effect on increasing the expression of CHOP (GADD153), the most downstream factor of the mechanism. […] Thus, in addition to the activation of ISR by amino acid deficiency, a significant effect can be expected on the mechanism of inhibition of the activity of PERK, an ISR-related kinase, due to endoplasmic reticulum stress response.

[2] = target: recombinant human PKR protein (Homo sapiens, UniProt P19525); assay: Protein kinase R (PKR) inhibitory capacity, 33P-ATP filter assay; format: biochemical; conditions: 15 uM [gamma-33P-ATP], 40 minutes, room temperature
recombinant human PKR protein, sequence (P19525 whole entry): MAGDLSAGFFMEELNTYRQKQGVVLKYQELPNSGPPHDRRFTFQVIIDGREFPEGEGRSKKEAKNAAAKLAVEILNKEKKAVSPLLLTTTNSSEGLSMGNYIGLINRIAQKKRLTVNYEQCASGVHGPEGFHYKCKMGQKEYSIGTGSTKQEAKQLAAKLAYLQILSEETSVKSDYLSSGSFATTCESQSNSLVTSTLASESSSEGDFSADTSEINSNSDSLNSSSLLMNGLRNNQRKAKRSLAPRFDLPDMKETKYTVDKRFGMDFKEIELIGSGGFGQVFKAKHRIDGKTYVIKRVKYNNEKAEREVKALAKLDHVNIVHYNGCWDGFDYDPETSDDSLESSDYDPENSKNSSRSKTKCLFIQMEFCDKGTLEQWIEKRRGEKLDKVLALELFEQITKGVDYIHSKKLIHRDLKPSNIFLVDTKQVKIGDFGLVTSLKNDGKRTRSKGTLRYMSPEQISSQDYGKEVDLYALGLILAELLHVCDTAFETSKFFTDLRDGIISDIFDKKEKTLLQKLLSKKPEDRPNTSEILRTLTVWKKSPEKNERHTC
Protocol: <Experimental Example 4> Evaluation of Protein Kinase R (PKR) Inhibitory Capacity
(§7) A recombinant human PKR protein was mixed with the compound in a reaction solution (8 mM MOPS pH 7.0, 0.2 mM EDTA, 20 uM RSRSRSRSRSRSRSR, 10 mM Magnesium acetate, 15 uM [gamma-33P-ATP]) and reacted at room temperature for 40 minutes. Then, the reaction was terminated by adding phosphoric acid (0.5%) to the reaction mixture, and 10 ul of the reaction solution was dropped onto a P30 filter. The filter was washed four times in a 0.425% phosphoric acid solution for 4 minutes, then washed once more in methanol, dried, and the PKR activity was measured by scintillation counting. […] The compound was diluted by 1/3 from the highest concentration of 1 uM and treated with a total of 9 concentrations to evaluate the degree of inhibition.

[3] = target: T2, recombinant human PERK protein (Homo sapiens, UniProt Q9NZJ5); assay: PKR-like endoplasmic reticulum kinase (PERK) inhibitory capacity, 33P-ATP filter assay; format: biochemical; conditions: 15 uM [gamma-33P-ATP], 40 minutes, room temperature
T2 sequence (Q9NZJ5 30-1116): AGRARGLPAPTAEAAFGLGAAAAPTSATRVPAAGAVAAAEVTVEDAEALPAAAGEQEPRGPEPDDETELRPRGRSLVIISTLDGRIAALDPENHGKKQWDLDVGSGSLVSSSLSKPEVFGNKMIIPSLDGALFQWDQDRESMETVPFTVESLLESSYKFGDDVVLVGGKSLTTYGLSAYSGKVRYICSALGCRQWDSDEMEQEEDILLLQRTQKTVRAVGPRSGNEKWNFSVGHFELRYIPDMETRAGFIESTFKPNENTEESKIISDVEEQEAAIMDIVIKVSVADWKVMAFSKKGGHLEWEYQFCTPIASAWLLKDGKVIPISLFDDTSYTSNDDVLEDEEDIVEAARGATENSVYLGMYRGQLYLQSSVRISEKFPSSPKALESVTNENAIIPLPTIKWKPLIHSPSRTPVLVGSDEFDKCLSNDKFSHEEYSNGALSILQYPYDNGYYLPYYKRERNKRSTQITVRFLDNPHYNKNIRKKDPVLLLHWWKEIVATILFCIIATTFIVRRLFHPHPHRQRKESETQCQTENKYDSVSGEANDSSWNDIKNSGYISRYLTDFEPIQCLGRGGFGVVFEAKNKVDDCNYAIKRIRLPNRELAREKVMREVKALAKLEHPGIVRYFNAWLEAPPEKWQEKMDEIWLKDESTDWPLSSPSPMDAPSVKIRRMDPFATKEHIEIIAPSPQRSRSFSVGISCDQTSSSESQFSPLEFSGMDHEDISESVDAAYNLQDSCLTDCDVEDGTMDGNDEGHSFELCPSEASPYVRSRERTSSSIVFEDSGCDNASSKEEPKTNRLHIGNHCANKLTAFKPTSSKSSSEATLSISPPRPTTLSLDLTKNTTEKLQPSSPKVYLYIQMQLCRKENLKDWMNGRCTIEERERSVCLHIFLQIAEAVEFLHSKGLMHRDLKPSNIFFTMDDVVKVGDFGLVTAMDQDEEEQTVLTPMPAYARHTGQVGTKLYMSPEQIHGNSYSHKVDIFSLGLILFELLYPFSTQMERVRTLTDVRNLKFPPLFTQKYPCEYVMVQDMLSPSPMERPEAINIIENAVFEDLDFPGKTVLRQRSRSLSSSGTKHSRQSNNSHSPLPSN
Protocol: <Experimental Example 1> Evaluation of PKR-Like Endoplasmic Reticulum Kinase (PERK) Inhibitory Capacity
as §7, with “PERK” for “PKR”, “300” for “20”

[4] = target: recombinant human HRI protein (Homo sapiens, UniProt Q9BQI3); assay: eIF2-alpha kinase heme-regulated inhibitor (HRI) inhibitory capacity, 33P-ATP filter assay; format: biochemical; conditions: 45 uM [gamma-33P-ATP], 40 minutes, room temperature
recombinant human HRI protein, sequence (Q9BQI3 whole entry): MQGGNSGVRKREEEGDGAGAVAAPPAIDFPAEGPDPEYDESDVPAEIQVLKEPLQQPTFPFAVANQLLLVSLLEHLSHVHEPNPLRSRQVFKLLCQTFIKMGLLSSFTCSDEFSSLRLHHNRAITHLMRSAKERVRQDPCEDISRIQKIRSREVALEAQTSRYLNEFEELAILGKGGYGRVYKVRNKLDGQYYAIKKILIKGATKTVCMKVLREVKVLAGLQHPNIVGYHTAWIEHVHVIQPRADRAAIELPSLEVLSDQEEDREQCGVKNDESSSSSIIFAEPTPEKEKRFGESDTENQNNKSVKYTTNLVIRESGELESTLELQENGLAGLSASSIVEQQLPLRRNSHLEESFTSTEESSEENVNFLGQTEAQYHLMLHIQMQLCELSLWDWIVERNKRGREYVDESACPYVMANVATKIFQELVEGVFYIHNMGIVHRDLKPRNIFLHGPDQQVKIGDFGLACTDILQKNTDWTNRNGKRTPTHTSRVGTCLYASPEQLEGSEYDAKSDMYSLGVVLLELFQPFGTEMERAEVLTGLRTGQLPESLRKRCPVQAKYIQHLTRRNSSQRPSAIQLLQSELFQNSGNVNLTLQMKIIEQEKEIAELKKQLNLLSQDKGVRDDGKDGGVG
Protocol: <Experimental Example 3> Evaluation of eIF2-Alpha Kinase Heme-Regulated Inhibitor (HRI) Inhibitory Capacity
A recombinant human HRI protein was mixed with the compound in a reaction solution (50 mM Tris/HCl pH 7.5, 0.04 mM EDTA, 300 uM RSRSRSRSRSRSRSR, 10 mM Magnesium acetate, 45 uM [gamma-33P-ATP]) and reacted at room temperature for 40 minutes. Then, the reaction was terminated by adding phosphoric acid (0.5%) to the reaction mixture, and […] of the reaction solution was dropped onto a P30 filter. The filter was washed four times in a 0.425% phosphoric acid solution for 4 minutes, then […] washed once more in methanol, dried, and the HRI activity was measured by scintillation counting. […] The compound was diluted by 1/3 from the highest concentration of 1 uM and treated with a total of 9 concentrations to evaluate the degree of inhibition.

T1 sequence (Q9P2K8 whole entry): as the sequence (Q9P2K8 whole entry) above

`Cn1c(=O)n(-c2c(F)ccc(NS(=O)(=O)c3cccc4ccccc34)c2F)c(=O)c2cnc(N)nc21` [Example 43, N-(3-(7-amino-1-methyl-2,4-dioxo-1,4-dihydropyrimido[4,5-d]pyrimidin-3(2H)-yl)-2,4-difluorophenyl)naphthalene-1-sulfonamide] was tested, and the “inhibitory effect on the phosphorylated GCN2” value (phosphorylated GCN2) was “excellent inhibitory effects”, the Phospho-GCN2 inhibition (phosphorylated GCN2) was “◯” and the IC50 [1] was 0.1 to 0.3 µM. The “inhibitory effect on ATF4 (FIG. 1)” value (ATF4) was “excellent inhibitory effects”.

With `COc1ccc(Br)cc1S(=O)(=O)Nc1ccc(F)c(-n2c(=O)c3cnc(N)nc3n(C)c2=O)c1F` [Example 51, N-(3-(7-amino-1-methyl-2,4-dioxo-1,2-dihydropyrimido[4,5-d]pyrimidin-3(4H)-yl)-2,4-difluorophenyl)-5-bromo-2-methoxybenzenesulfonamide] the “inhibitory effect on the phosphorylated GCN2” value (phosphorylated GCN2) was “excellent inhibitory effects”, the Phospho-GCN2 inhibition (phosphorylated GCN2) was “◯” and the IC50 [1] was 0.1 to 0.3 µM. The “inhibitory effect on ATF4 (FIG. 1)” value (ATF4) was “excellent inhibitory effects”.

Work on `Cn1c(=O)n(-c2c(F)ccc(NS(=O)(=O)c3cc(Cl)cnc3Cl)c2F)c(=O)c2cnc(N)nc21` [Example 57, N-(3-(7-amino-1-methyl-2,4-dioxo-1,4-dihydropyrimido[4,5-d]pyrimidin-3(2H)-yl)-2,4-difluorophenyl)-2,5-dichloropyridine-3-sulfonamide] yielded an IC50 [2] of 0.3 to 1 µM, an IC50 [3] of under 0.1 µM and an IC50 [1] of under 0.1 µM. The IC50 [4] was 0.1 to 0.3 µM.

Reference: patent publication US20260184706A1, “PHENYLSULFONAMIDE DERIVATIVES, PREPARATION METHOD THEREFOR, AND PHARMACEUTICAL COMPOSITION FOR PREVENTION OR TREATMENT OF CANCER CONTAINING SAME AS ACTIVE INGREDIENT” (Korea Research Institute of Chemical Technology, priority 2022, published 2026)
